Biological target: CFTR-mediated chloride transport (Homo sapiens, UniProt P13569)
Test: Corrector Assay A - membrane potential dye assay (enteroid cells)
Conditions: for Corrector Assay A % activity: % of chloride transport of triple combination control (1 μM (14S)-dispiro macrocycle + 3 μM tezacaftor + 300 nM ivacaftor); for EC50: read-out: Corrector Assay A EC50, human intestinal enteroid cells, 18-24 h incubation, acute 10 μM forskolin + 300 nM ivacaftor

Compound	Corrector Assay A % activity	EC50 [nM]
CC(C)(C)CCOc1ccn(-c2ccc3c(n2)N2C[C@@H](CC[C@H](c4cc(C(C)(C)C)ccn4)Nc4cccc(n4)S(=O)(=O)NC3=O)CC2(C)C)n1 [Compound 305, (14S,17R)-17-(4-tert-butylpyridin-2-yl)-8-[3-(3,3-dimethylbutoxy)-1H-pyrazol-1-yl]-12,12-dimethyl-2λ^6-thia-3,9,11,18,23-pentaazatetracyclo[17.3.1.111,14.05,10]tetracosa-1(22),5,7,9,19(23),20-hexaene-2,2,4-trione]	+++ (+++ is >60%)	< 1000
CC(C)(C)CCOc1ccn(-c2ccc3c(n2)N2C[C@@H](CC[C@H](c4cccc(C(F)(F)F)n4)Nc4cccc(n4)S(=O)(=O)NC3=O)CC2(C)C)n1 [Compound 306, (14S,17R)-8-[3-(3,3-dimethylbutoxy)-1H-pyrazol-1-yl]-12,12-dimethyl-17-[6-(trifluoromethyl)pyridin-2-yl]-2λ^6-thia-3,9,11,18,23-pentaazatetracyclo[17.3.1.111,14.05,10]tetracosa-1(22),5,7,9,19(23),20-hexaene-2,2,4-trione]	++ (++ is 30-60%)	< 1000
CC(C)(C)c1ccnc([C@H]2CC[C@@H]3CN(c4nc(-c5cccc(F)n5)ccc4C(=O)NS(=O)(=O)c4cccc(n4)N2)C(C)(C)C3)c1 [Compound 307, (14S,17R)-17-(4-tert-butylpyridin-2-yl)-8-(6-fluoropyridin-2-yl)-12,12-dimethyl-2λ^6-thia-3,9,11,18,23-pentaazatetracyclo[17.3.1.111,14.05,10]tetracosa-1(22),5,7,9,19(23),20-hexaene-2,2,4-trione]	+++ (+++ is >60%)	< 1000
CC1(C)C[C@@H]2CC[C@H](c3cccc(C(F)(F)F)n3)Nc3cccc(n3)S(=O)(=O)NC(=O)c3ccc(-c4cccc(F)n4)nc3N1C2 [Compound 308, (14S,17R)-8-(6-fluoropyridin-2-yl)-12,12-dimethyl-17-[6-(trifluoromethyl)pyridin-2-yl]-2λ^6-thia-3,9,11,18,23-pentaazatetracyclo[17.3.1.111,14.05,10]tetracosa-1(22),5,7,9,19(23),20-hexaene-2,2,4-trione]	++ (++ is 30-60%)	< 1000
CC(C)(C)CCOc1cccc(-c2ccc3c(n2)N2C[C@@H](CC[C@H](c4ccccn4)Nc4cccc(n4)S(=O)(=O)NC3=O)CC2(C)C)n1 [Compound 310]	++ (++ is 30-60%)	< 1000
CC1(C)C[C@@H]2CC[C@H](c3ccccn3)Nc3cccc(n3)S(=O)(=O)NC(=O)c3ccc(-c4cccc(OCCC5CC5)n4)nc3N1C2 [Compound 311]	+++ (+++ is >60%)	< 1000
CC(C)(C)COc1cccc(-c2ccc3c(n2)N2C[C@@H](CC[C@H](c4ccccn4)Nc4cccc(n4)S(=O)(=O)NC3=O)CC2(C)C)n1 [Compound 312]	+++ (+++ is >60%)	< 1000
CC1(C)C[C@@H]2CC[C@H](c3ccccn3)Nc3cccc(n3)S(=O)(=O)NC(=O)c3ccc(-c4cccc(OCC5CCC5)n4)nc3N1C2 [Compound 313, (14S,17R)-8-[6-(cyclobutylmethoxy)pyridin-2-yl]-12,12-dimethyl-17-(pyridin-2-yl)-2λ^6-thia-3,9,11,18,23-pentaazatetracyclo[17.3.1.111,14.05,10]tetracosa-1(22),5,7,9,19(23),20-hexaene-2,2,4-trione]	+++ (+++ is >60%)	< 1000
CC1(C)C[C@@H]2CC[C@H](c3ccccn3)Nc3cccc(n3)S(=O)(=O)NC(=O)c3ccc(-c4cccc(OCC5CC5)n4)nc3N1C2 [Compound 314]	+++ (+++ is >60%)	< 1000
CC(C)COc1cccc(-c2ccc3c(n2)N2C[C@@H](CC[C@H](c4ccccn4)Nc4cccc(n4)S(=O)(=O)NC3=O)CC2(C)C)n1 [Compound 315]	+++ (+++ is >60%)	< 1000
CCOc1cccc(-c2ccc3c(n2)N2C[C@@H](CC[C@H](c4ccccn4)Nc4cccc(n4)S(=O)(=O)NC3=O)CC2(C)C)n1 [Compound 316]	+++ (+++ is >60%)	< 1000
CCOc1cccc(-c2ccc3c(n2)N2C[C@@H](CC[C@@H](c4ccccn4)Nc4cccc(n4)S(=O)(=O)NC3=O)CC2(C)C)n1 [Compound 317]	++ (++ is 30-60%)	< 1000
CC1(C)C[C@@H]2CC[C@H](c3ccccn3)Nc3cccc(n3)S(=O)(=O)NC(=O)c3ccc(-c4cccc(F)n4)nc3N1C2 [Compound 318, (14S,17R)-8-(6-fluoropyridin-2-yl)-12,12-dimethyl-17-(pyridin-2-yl)-2λ^6-thia-3,9,11,18,23-pentaazatetracyclo[17.3.1.111,14.05,10]tetracosa-1(22),5,7,9,19(23),20-hexaene-2,2,4-trione]	+++ (+++ is >60%)	< 1000
CC(C)(C)CCOc1ccn(-c2ccc3c(n2)N2C[C@@H](CC[C@H](c4ccccn4)Nc4cccc(n4)S(=O)(=O)NC3=O)CC2(C)C)n1 [Compound 320, (14S,17R)-8-[3-(3,3-dimethylbutoxy)-1H-pyrazol-1-yl]-12,12-dimethyl-17-(pyridin-2-yl)-2λ^6-thia-3,9,11,18,23-pentaazatetracyclo[17.3.1.111,14.05,10]tetracosa-1(22),5,7,9,19(23),20-hexaene-2,2,4-trione]	+++ (+++ is >60%)	< 1000
CC1(COc2ccn(-c3ccc4c(n3)N3C[C@@H](CC[C@H](c5ccccn5)Nc5cccc(n5)S(=O)(=O)NC4=O)CC3(C)C)n2)CC1 [Compound 321]	+++ (+++ is >60%)	< 1000
CC(C)(C)COc1ccn(-c2ccc3c(n2)N2C[C@@H](CC[C@H](c4ccccn4)Nc4cccc(n4)S(=O)(=O)NC3=O)CC2(C)C)n1 [Compound 322]	++ (++ is 30-60%)	< 1000
CC(C)c1cnn(-c2ccc3c(n2)N2C[C@@H](CC[C@H](c4ccccn4)Nc4cccc(n4)S(=O)(=O)NC3=O)CC2(C)C)c1 [Compound 323]	++ (++ is 30-60%)	< 1000
CC1(C)C[C@@H]2CC[C@H](c3ccccn3)Nc3cccc(n3)S(=O)(=O)NC(=O)c3ccc(C4CCC(F)(F)CC4)nc3N1C2 [Compound 324, (14S,17R)-8-(4,4-Difluorocyclohexyl)-12,12-dimethyl-17-(pyridin-2-yl)-2λ^6-thia-3,9,11,18,23-pentaazatetracyclo[17.3.1.111,14.05,10]tetracosa-1(22),5,7,9,19(23),20-hexaene-2,2,4-trione]	+++ (+++ is >60%)	< 1000
CC1(C)C[C@@H]2CC[C@H](c3ccccn3)Nc3cccc(n3)S(=O)(=O)NC(=O)c3ccc(C4=CCC(F)(F)CC4)nc3N1C2 [Compound 325, (14S,17R)-8-(4,4-Difluorocyclohex-1-en-1-yl)-12,12-dimethyl-17-(pyridin-2-yl)-2λ^6-thia-3,9,11,18,23-pentaazatetracyclo[17.3.1.111,14.05,10]tetracosa-1(22),5,7,9,19(23),20-hexaene-2,2,4-trione]	+++ (+++ is >60%)	< 1000
CC1(C)CCC(c2ccc3c(n2)N2C[C@@H](CC[C@H](c4ccccn4)Nc4cccc(n4)S(=O)(=O)NC3=O)CC2(C)C)CC1 [Compound 326]	+++ (+++ is >60%)	< 1000
